Columns and labels:
[1] = target: Serotonin 1 (5-HT1) receptor (Rattus norvegicus, UniProt P28564+P30940+P19327+P28565); assay: The compound was tested for its binding affinity towards 5-hydroxytryptamine 1 receptor by displacing [3H]5-HT radioligand in rat cerebral cortex; format: tissue-based
[2] = target: Serotonin 2 (5-HT2) receptor (Rattus norvegicus, UniProt P30994+P08909+P14842); assay: The compound was tested for its binding affinity towards 5-hydroxytryptamine 2 receptor by displacing [3H]ketanserin radioligand in rat cerebral cortex; format: tissue-based
[3] = target: T1, Adrenergic receptor alpha-1 (Rattus norvegicus, UniProt P15823+P23944+P43140); assay: The compound was tested for its binding affinity towards Alpha-1 adrenergic receptor by displacing [3H]WB-4101 radioligand in rat cerebral cortex; format: tissue-based
T1 sequence (P15823 whole entry): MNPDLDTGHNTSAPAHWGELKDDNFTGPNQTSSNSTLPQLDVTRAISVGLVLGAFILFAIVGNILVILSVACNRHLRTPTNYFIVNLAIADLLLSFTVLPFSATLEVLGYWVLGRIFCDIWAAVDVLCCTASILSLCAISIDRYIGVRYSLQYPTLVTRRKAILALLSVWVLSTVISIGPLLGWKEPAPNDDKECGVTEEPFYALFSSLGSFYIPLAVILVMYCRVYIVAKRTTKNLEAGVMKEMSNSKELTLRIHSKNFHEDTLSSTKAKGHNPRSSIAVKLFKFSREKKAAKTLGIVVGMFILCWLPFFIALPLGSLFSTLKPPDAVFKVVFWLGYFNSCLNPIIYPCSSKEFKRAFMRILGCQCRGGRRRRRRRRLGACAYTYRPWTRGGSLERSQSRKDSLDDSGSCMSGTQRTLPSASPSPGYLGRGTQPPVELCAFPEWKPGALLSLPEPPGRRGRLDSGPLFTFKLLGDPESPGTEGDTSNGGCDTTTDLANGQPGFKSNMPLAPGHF
T1 sequence (P23944 whole entry): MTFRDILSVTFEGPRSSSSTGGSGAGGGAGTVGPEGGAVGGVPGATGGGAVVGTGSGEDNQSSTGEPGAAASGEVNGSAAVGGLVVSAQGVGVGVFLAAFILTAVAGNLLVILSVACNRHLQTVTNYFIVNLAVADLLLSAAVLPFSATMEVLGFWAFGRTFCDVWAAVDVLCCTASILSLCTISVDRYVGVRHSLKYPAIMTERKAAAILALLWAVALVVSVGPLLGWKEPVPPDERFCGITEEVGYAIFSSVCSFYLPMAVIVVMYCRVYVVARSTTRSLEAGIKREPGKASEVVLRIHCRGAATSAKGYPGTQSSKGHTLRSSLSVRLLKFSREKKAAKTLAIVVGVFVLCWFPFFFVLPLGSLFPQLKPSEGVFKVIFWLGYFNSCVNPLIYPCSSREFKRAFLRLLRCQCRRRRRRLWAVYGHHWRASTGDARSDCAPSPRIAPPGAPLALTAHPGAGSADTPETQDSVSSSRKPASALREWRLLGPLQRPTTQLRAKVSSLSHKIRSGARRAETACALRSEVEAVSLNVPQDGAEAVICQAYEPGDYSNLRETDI
T1 sequence (P43140 whole entry): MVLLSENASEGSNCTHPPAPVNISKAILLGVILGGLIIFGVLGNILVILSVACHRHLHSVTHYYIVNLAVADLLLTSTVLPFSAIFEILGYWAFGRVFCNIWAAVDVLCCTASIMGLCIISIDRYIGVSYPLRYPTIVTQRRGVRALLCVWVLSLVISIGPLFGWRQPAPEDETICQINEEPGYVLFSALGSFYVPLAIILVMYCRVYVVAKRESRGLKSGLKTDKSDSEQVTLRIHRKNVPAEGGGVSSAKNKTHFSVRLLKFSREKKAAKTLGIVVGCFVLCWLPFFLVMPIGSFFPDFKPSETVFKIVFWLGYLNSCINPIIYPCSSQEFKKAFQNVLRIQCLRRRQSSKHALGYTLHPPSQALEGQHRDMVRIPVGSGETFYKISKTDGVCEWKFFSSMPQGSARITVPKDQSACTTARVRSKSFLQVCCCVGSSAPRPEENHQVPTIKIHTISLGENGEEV

Rattus norvegicus [4] = assay: The percentage production of catalepsy in rat at a dose of 100 mg/kg ip.; format: functional
Rattus norvegicus [5] = assay: Antipsychotic activity at a dose 10 times the ED50 value for CAR block for production of catalepsy in the rat (following i.p. dosing); format: functional; settings: ip
Rattus norvegicus [6] = assay: The compound was measured at a dose 10 times the ED50 value for CAR block for production of catalepsy in the rat via oral administration.; format: functional
[7] = target: 5-hydroxytryptamine receptor 1B (Rattus norvegicus, UniProt P28564); assay: The compound was tested for its binding affinity towards 5-hydroxytryptamine 1B receptor by displacing [3H]serotonin radioligand in rat cerebral cortex; format: tissue-based
Rattus norvegicus [8] = assay: The percentage production of catalepsy in rat at a dose of 50 mg/kg ip.; format: functional
D(2) dopamine receptor = D(2) dopamine receptor (Rattus norvegicus, UniProt P61169); assay: The compound was tested for its binding affinity towards Dopamine receptor D2 by displacing [3H]spiperone radioligand in rat striatum
Rattus norvegicus [9] = assay: The percentage production of catalepsy in rat at a dose of 20 mg/kg ip.; format: functional
Rattus norvegicus [10] = assay: The percentage production of catalepsy in rat at a dose of 54 mg/kg ip.; format: functional
[11] = target: T2, 5-hydroxytryptamine receptor 1A (Rattus norvegicus, UniProt P19327); assay: Binding affinity towards 5-hydroxytryptamine 1A receptor by displacing [3H]WB-4101 from rat hippocampus; format: tissue-based
T2 sequence (P19327 whole entry): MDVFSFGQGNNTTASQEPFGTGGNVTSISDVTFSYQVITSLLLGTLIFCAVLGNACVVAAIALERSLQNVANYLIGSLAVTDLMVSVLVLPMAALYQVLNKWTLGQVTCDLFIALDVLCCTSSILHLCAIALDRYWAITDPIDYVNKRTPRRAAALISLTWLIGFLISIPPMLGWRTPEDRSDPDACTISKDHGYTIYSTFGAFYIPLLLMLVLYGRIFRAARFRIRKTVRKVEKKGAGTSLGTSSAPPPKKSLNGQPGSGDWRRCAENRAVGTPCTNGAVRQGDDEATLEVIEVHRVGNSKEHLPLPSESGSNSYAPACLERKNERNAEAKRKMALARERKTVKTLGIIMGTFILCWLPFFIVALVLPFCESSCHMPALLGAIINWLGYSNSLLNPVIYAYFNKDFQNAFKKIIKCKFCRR

Rattus norvegicus [12] = assay: The percentage production of catalepsy in rat at a dose of 37 mg/kg ip.; format: functional
Rattus norvegicus [13] = species on record: Rattus norvegicus; assay: ED50 value for catalepsy indicates the dose required to produce a 50% of maximum catalepsy score. parentheses; format: functional
Rattus norvegicus [14] = assay: The percentage production of catalepsy in rat at a dose of 57 mg/kg ip.; format: functional
Rattus norvegicus [15] = species on record: Rattus norvegicus; assay: ED50 value for catalepsy indicates the dose required to produce a 50% of maximum catalepsy score.; format: functional
Rattus norvegicus [16] = assay: The percentage production of catalepsy in rat at a dose of 70 mg/kg ip.; format: functional
Rattus norvegicus [17] = assay: The percentage production of catalepsy in rat at a dose of 90 mg/kg ip.; format: functional
Rattus norvegicus [18] = assay: The percentage production of catalepsy in rat at a dose of 27 mg/kg ip.; format: functional
[19] = Rattus norvegicus, po, read-out: ED50

Chain of 5-hydroxytryptamine receptor 1B (P28564 whole entry): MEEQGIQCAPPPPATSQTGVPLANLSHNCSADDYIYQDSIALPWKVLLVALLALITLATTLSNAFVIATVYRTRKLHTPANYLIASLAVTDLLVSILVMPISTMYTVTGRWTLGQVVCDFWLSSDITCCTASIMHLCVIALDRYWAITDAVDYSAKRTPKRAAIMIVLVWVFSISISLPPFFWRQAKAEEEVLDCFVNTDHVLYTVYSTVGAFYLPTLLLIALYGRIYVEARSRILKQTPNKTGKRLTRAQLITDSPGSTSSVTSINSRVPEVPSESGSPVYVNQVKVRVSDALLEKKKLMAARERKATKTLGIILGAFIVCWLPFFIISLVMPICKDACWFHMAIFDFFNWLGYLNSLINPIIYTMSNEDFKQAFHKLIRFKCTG
Chain of D(2) dopamine receptor (P61169 whole entry): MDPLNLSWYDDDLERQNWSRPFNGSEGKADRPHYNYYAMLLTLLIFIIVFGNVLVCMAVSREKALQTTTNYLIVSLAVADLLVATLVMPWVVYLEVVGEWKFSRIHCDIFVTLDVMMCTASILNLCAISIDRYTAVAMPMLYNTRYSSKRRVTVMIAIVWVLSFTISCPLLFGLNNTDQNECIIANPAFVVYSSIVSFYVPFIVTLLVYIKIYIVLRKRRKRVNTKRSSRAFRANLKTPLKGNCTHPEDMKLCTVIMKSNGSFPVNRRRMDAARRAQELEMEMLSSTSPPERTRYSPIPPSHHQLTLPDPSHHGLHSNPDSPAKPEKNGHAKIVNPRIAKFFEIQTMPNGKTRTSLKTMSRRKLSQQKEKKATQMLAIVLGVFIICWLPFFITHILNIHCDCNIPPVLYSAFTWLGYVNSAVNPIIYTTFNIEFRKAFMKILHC

| SMILES | Ki [1] [nM] | Ki [2] [nM] | Ki [3] [nM] | ED50 (Rattus norvegicus [5]) [mg/kg] | ED50 (Rattus norvegicus [6]; [19]) [mg/kg] | also measured |
| --- | --- | --- | --- | --- | --- | --- |
| CC(C)c1ccccc1N1CCN(Cc2ccc(CN3CCCCCC3=O)n2C)CC1 | 82.1 | 110 | 53.9 | 10 | > 30 | % catalepsy at 100 mg/kg (Rattus norvegicus [4]): 17% |
| Cn1c(CN2CCN(c3cccc(Cl)c3)CC2)ccc1CN1CCCCC1=O |  |  |  | 10.4 |  | Ki [7]: 95 nM; % catalepsy at 50 mg/kg (Rattus norvegicus [8]): 28% |
| Cc1nc2sccn2c(=O)c1CCN1CCC(=C(c2ccc(F)cc2)c2ccc(F)cc2)CC1 [RITANSERIN] |  |  | 49.5 | > 3 |  | Ki (D(2) dopamine receptor): 53.2 nM |
| CCOc1ccccc1N1CCN(Cc2ccc(CN3CCCC3=O)n2C)CC1 | 76 | 455 | 27.5 | 1.8 | 32 | % catalepsy at 20 mg/kg (Rattus norvegicus [9]): 97% |
| CC(C)Oc1ccccc1N1CCN(Cc2ccc(CN3CCCCC3=O)n2C)CC1 [RWJ-25730] |  | 1006 |  |  |  | % catalepsy at 54 mg/kg (Rattus norvegicus [10]): 12.1%; ED50 (Rattus norvegicus [6]): 10.4 mg/kg |
| CCC(C)Oc1ccccc1N1CCN(Cc2ccc(CN3CCCCC3=O)n2C)CC1 (configuration not stated) | 29.3 | 267 | 17.4 | 3.7 |  | Ki [11]: 1.8 nM; Ki [7]: 45 nM; % catalepsy at 37 mg/kg (Rattus norvegicus [12]): 17% |
| COc1ccccc1N1CCNCC1 | 28 | > 100 |  | 5.6 |  | ED50 (Rattus norvegicus [13]): > 45 mg/kg |
| CC(C)Oc1ccccc1N1CCN(Cc2ccc(CN3CCCCCC3=O)n2C)CC1 | 68.8 | 1000 | 16.3 | 5.7 | 18.9 | % catalepsy at 57 mg/kg (Rattus norvegicus [14]): 26% |
| CN1CCN(C2=Nc3cc(Cl)ccc3Nc3ccccc32)CC1 [CLOZAPINE] |  |  |  |  | 32.5 | ED50 (Rattus norvegicus [15]): > 70 mg/kg; % catalepsy at 70 mg/kg (Rattus norvegicus [16]): 10% |
| CC(C)c1ccccc1N1CCN(Cc2ccc(CN3CCCCC3=O)n2C)CC1 | 41.3 | 137 |  | 8.9 | > 30 | % catalepsy at 90 mg/kg (Rattus norvegicus [17]): 19% |
| CC(C)Oc1ccccc1N1CCN(Cc2ccc(CN3CCCC3=O)n2C)CC1 | 120 | 386 | 7.3 | 2.2 | > 20 | % catalepsy at 27 mg/kg (Rattus norvegicus [18]): 52% |
